Data on 2 compounds can be found in patent US20150366890A1, “COMPOSITIONS AND METHODS FOR TREATING FUNGAL INFECTIONS” (TRUSTEES OF BOSTON UNIVERSITY, priority 2013, published 2015).

Assay type in all cases: cell-based
Experiment [1] concerns C. albicans. Put plainly: TUNEL assay of DNA strand breaks (flow cytometry). To be noted: after 2 hours of treatment. The method, then:
The terminal deoxynucleotidyl transferase dUTP nick-end labeling (TUNEL) assay was used to quantify the relative abundance of DSBs in C. albicans cells treated with AFs and H2O2. The TUNEL reagent fluorescently labels both double- and single-strand DNA breaks (Ribeiro et al., 2006).
DNA strand breaks were fluorescently labeled with TUNEL reagent from the “In Situ Cell Death Detection Kit”, Roche (Mannheim, Germany). After 2 hours of treatment 5 ml of OD 0.2 cells were fixed with 3.7% formaldehyde for 30 min at room temperature, and then washed with digestion buffer consisting of 10 mM Mes pH 6.5 and 1 M sorbitol. Cell were digested for 45 min at 30° C. with 2 U of Yeast Lytic Enzyme, MP Biomedicals, (Irvine, Calif.) in 50 μl of digestion buffer. Cells were then washed in PBS with 1 M sorbitol and resuspended in permeabilization solution consisting of 0.1% Triton X-100 and 0.1% sodium citrate and 1 M sorbitol for 10 min at room temperature. Cell were again washed in PBS with 1 M sorbitol and labeled for 60 min with 10 μl of TUNEL reaction mixture. Cells were then again washed in PBS with 1 M sorbitol and resuspended in sheath fluid. Mean relative florescence was measured by flow cytometry on the FACSCalibur (Becton-Dickinson).

The subject of experiment [2] is S. cerevisiae wildtype and deletion strains. To be noted: S. cerevisiae, 3 hours of drug exposure.
Experiment [3] has as its system C. albicans. Put plainly: ROS formation by HPF fluorescence (flow cytometry). To be noted: wildtype C. albicans, SDC, after 1.5 hours of treatment (CAS 0.5 μg/ml). The method, then: (§1) The formation of ROS following AF treatment in yeast was measured using the dye 3′-(p-hydroxyphenyl) fluorescein (HPF), which is preferentially oxidized by intracellular hydroxyl radicals into a fluorescent product (Kohanski et al., 2007). Exponentially growing wildtype S. cerevisiae and C. albicans were treated in synthetic dextrose complete (SDC) medium with the minimum concentration of fungicide required to achieve at least a 90% reduction in colony forming units (CFU) after three hours of exposure. As a positive control, cells were also treated with H2O2, a potent inducer of hydroxyl radical formation (Perrone et al., 2008).
(§2) Overnight yeast cultures were diluted into the indicated media and grown to an OD600 of 0.2, at which point the AFs were added. Colony forming units (CFU) were measured by plating six serial dilutions onto YPD agar plates. Cells treated with MCZ were washed before serial dilution to stop growth inhibition associated with high concentrations of MCZ. CFU were counted after three days of incubation on agar plates. When indicated, thiourea (Fluka) was added 30 min prior to the addition of AFs. HPF (10 μM) (Invitrogen) and Mito Tracker (1 μM) (Invitrogen) dyes were added to PBS-washed cells at the indicated time points and incubated for 30 min prior to flow cytometry measurements, which were taken on the FACSCalibur (Becton-Dickinson). All experiments described in this section were conducted in 0.5 ml of SDC in 24-well plates incubated at 900 rpm and 37° C. for C. albicans and 30° C. and 300 rpm for S. cerevisiae. TUNEL assays were conducted as previously described (Ribeiro et al., 2006) and are described in detail in the TUNEL section of the Experimental Procedures.

A further experiment has as its system S. cerevisiae. Put plainly: ROS formation by HPF fluorescence (flow cytometry). To be noted: wildtype S. cerevisiae, SDC, after 1.5 hours of treatment. On the procedure:
as §1, §2

The subject of experiment [4] is C. albicans. Put plainly: Metabolomic profiling of intracellular metabolites (Metabolon). The method, then: The results described herein link AF treatment to distinct changes in intracellular metabolic activity as part of an induced common killing mechanism. To further explore the role of metabolism in AF-induced cellular death, the effect of AF treatment on the intracellular metabolome of C. albicans was measured. To do so, a platform for metabolite detection and relative quantification from Metabolon Inc. (Durham, USA) (Evans et al., 2009) was utilized. Exponentially growing C. albicans cells were treated with AFs and samples collected for metabolomic analysis after 1.5 hours of treatment, a time point when it was expected that at least 90% of cells contributing to the metabolite pool would be irreversibly committed to the death pathway (FIGS. 7A-7D).
C. albicans cells were lysed and assayed by Metabolon Inc. (Durham, USA) as previously described (Shakoury-Elizeh et al., 2010). ATP and AMP were extracted as previously described (Walther et al., 2010) and analyzed by HPLC. This procedure is more fully described elsewhere herein.
C. albicans cells were incubated in 100 ml of SDC in 250 ml flasks at 37° C. and 300 rpm. Cells were exposed to AFs at an OD600 of 0.2, and cellular pellets from 100 ml of media were collected after 1.5 h of treatment. Cells were lysed and assayed by Metabolon Inc. (Durham, USA) as previously described (Evans et al., 2009; Shakoury-Elizeh et al., 2010).

Turning to `OO` [H2O2], the “TUNEL relative fluorescence (DNA breaks)” value in the experiment on C. albicans [1] is on record as “elevated relative fluorescence”. Moreover, the “susceptibility of rad50 and rad52 knockouts vs wildtype” value in experiment [2] is “considerably more susceptible”. Moreover, the “HPF fluorescence (formation of ROS)” value in the experiment with C. albicans [3] and with S. cerevisiae was “dramatic induction of HPF fluorescence” throughout.

For the compound `CC[C@H](C)C[C@H](C)CCCCCCCCC(=O)N[C@H]1C[C@@H](O)[C@@H](NCCN)NC(=O)[C@@H]2[C@@H](O)CCN2C(=O)[C@H]([C@H](O)CCN)NC(=O)[C@H]([C@H](O)[C@@H](O)c2ccc(O)cc2)NC(=O)[C@@H]2C[C@@H](O)CN2C(=O)[C@H]([C@@H](C)O)NC1=O` [caspofungin], in the experiment on C. albicans [3], the “HPF fluorescence (formation of ROS)” value is “elevated ROS levels”. The “intracellular sugars (fructose, mannose, trehalose) abundance vs control” value in the experiment on C. albicans [4] (1.5 hours of treatment) was “elevation of sugars”. Besides, in the experiment with C. albicans [4] (1.5 hours of treatment, vs untreated), the “fermentative waste products (2,3-butanediol and glycerol)” value is “reduction in fermentative byproducts”. Also, in the experiment with C. albicans [4] (CAS 0.5 μg/ml, 1.5 hours), the “metabolic changes compared with those induced by AMB, MCZ and CIC” value is recorded as “similar”.
